Measurements from the Deep4Chem optical property database.
“And” between values parts separate entries of the source, which are not always exact repeats. Equal entries are not always repeated.

Assay: solvent given as SMILES

SMILES: Nc1ccc(/C=C/c2ccccc2)cc1
- emission maximum (in CC#N): 423 nm
- emission maximum (in CCCCCC): 380 nm

SMILES: S=P1(c2ccccc2)C(c2ccccc2)=Cc2cc3ccccc3cc21 (stereo unspecified)
- emission maximum (in ClCCl): 425 nm

SMILES: CCN(CC)c1ccc2c(c1)oc(=O)c1c(=O)oc3cc(Br)ccc3c12
- emission maximum (in CS(C)=O): 572 nm
- emission maximum (in ClCCl): 540 nm

SMILES: c1ccc(N(c2ccccc2)c2ccc3ccc4c(N(c5ccccc5)c5ccccc5)ccc5ccc2c3c54)cc1
- emission maximum (in Cc1ccccc1): 458 nm
- emission maximum (in ClCCl): 472 nm

SMILES: CC(C)(C)c1ccc2c(c1)c1cc(C(C)(C)C)ccc1n2-c1ccc(C#Cc2ccc(C=C(C#N)C#N)cc2)cc1
- emission maximum (in CC#N): 490 nm
- emission maximum (in CCCCC): 448 nm
- emission maximum (in Cc1ccccc1): 554 nm
- emission maximum (in ClCCl): 534 nm

SMILES: CC1=[N+]2C(=C(c3ccc(N4CCCCC4)cc3)c3ccc(C)n3[B-]2(F)F)C=C1
- emission maximum (in C1CCCCC1): 519 nm
- emission maximum (in C1CCOC1): 527 nm and 514 nm
- emission maximum (in CC#N): 519 nm
- emission maximum (in CC(=O)C(C)(C)C): 523 nm
- emission maximum (in CC(C)=O): 517 nm
- emission maximum (in CCCCCC): 520 nm
- emission maximum (in CCOC(C)=O): 518 nm
- emission maximum (in CO): 518 nm
- emission maximum (in Cc1ccccc1): 593 nm
- emission maximum (in ClC(Cl)Cl): 527 nm

SMILES: CC(C)(C)NC1=CC2=c3cc(NC(C)(C)C)c4nc(C(F)(F)C(F)(F)C(F)(F)F)nc5c(NC(C)(C)C)cc(c3c54)C3=CC(NC(C)(C)C)=C4N=C(C(F)(F)C(F)(F)C(F)(F)F)N=C1C4C32 (stereo unspecified)
- emission maximum (in C1CCOC1): 666 nm

SMILES: CCOC(=O)/C(C#N)=C/c1cc2c3ccccc3n(C)c2cc1OC
- emission maximum (in C1CCOC1): 460 nm
- emission maximum (in CC#N): 486 nm
- emission maximum (in CCOC(C)=O): 458 nm
- emission maximum (in CN(C)C=O): 486 nm
- emission maximum (in CO): 486 nm
- emission maximum (in CS(C)=O): 488 nm
- emission maximum (in Cc1ccccc1): 446 nm
- emission maximum (in ClC(Cl)Cl): 468 nm
- emission maximum (in ClCCl): 472 nm

SMILES: COc1ccc(-c2nc3ccccc3oc2=O)cc1
- emission maximum (in c1ccccc1): 444 nm

SMILES: COc1cccc(-c2nc(-c3ccccc3)c(-c3ccccc3)[nH]2)c1
- emission maximum (in CO): 379 nm

SMILES: Cc1ccccc1-c1c2cccc3c(-c4ccc(C(C)(C)C)cc4)cc4c(-c5ccccc5C)c5cccc6c(-c7ccc(C(C)(C)C)cc7)cc1c(c65)c4c32
- emission maximum (in ClCCl): 455 nm

SMILES: O=C1CC(=O)Nc2cc(Br)ccc2N1
- emission maximum (in CS(C)=O): 350 nm

SMILES: c1cc2ccc3[s+]c4ccc5cccc6c7cccc8c(c1)c2c3c(c87)c4c56
- emission maximum (in ClCCl): 643 nm

SMILES: C1=C2C3=C(C4=[N+]2[B-]2(Oc5ccccc54)Oc4ccccc4-c4c5c(c1n42)C1CCC5CC1)C1CCC3CC1 (stereo unspecified)
- emission maximum (in ClCCl): 645 nm

SMILES: CCCC1(CCC)c2cc(-c3ccccc3)ccc2-c2ccc(-c3ccc4c(c3)C(CCC)(CCC)c3cc(-c5ccccc5)ccc3-4)cc21
- emission maximum (in C1CCCCC1): 387 nm

SMILES: COc1ccc(-c2cc(-c3ccc(OC)cc3)c3c(N)nc(N4CCCC4)c(C#N)c3n2)cc1
- emission maximum (in CC#N): 516 nm
- emission maximum (in CC(C)=O): 513 nm
- emission maximum (in CC(C)O): 507 nm
- emission maximum (in CO): 515 nm
- emission maximum (in ClC(Cl)Cl): 500 nm
- emission maximum (in ClCCl): 506 nm
- emission maximum (in c1ccccc1): 502 nm

SMILES: CC1(C)c2cc(-c3ccc4ccc5cccc6ccc3c4c56)ccc2-c2ccc(-c3ccc4ccc5cccc6ccc3c4c56)cc21
- emission maximum (in ClCCl): 421 nm

SMILES: COCCOCCOCCOc1ccc(/C=C/C2=[N+]3C(=C(c4cc(OC)cc(OC)c4)c4c(C)c(I)c(/C=C/c5ccc(OCCOCCOCCOC)cc5)n4[B-]3(F)F)C(C)=C2I)cc1
- emission maximum (in C1CCOC1): 684 nm
- emission maximum (in CS(C)=O): 695 nm
- emission maximum (in ClCCl): 687 nm

SMILES: Cc1cc(=O)c2c(ccc3ccc(O)cc32)o1
- emission maximum (in CC#N): 430 nm

SMILES: CC1CCC(O)(c2ccc(-c3cccs3)s2)CC1 (stereo unspecified)
- emission maximum (in C1CCOC1): 412 nm
- emission maximum (in CC#N): 405 nm
- emission maximum (in CCCCCC): 408 nm
- emission maximum (in CCO): 406 nm
- emission maximum (in OCCOCCO): 414 nm
- emission maximum (in c1ccncc1): 416 nm

SMILES: CN(C)c1ccc(-c2cc(-c3ccccc3)nn2C)cc1
- emission maximum (in ClCCl): 365 nm

SMILES: CCCCCCCCCCCCCCCCCCN1C(=O)c2cccc3c(OCCN(C)C)ccc(c23)C1=O
- emission maximum (in CC#N): 514 nm
- emission maximum (in CC(C)=O): 507 nm
- emission maximum (in CCO): 510 nm
- emission maximum (in CCOC(C)=O): 497 nm
- emission maximum (in CCOCC): 492 nm
- emission maximum (in CN(C)C=O): 516 nm
- emission maximum (in ClCCl): 502 nm

SMILES: O=C1NC(c2ccccc2)=N/C1=C\c1ccccc1
- emission maximum (in C1COCCO1): 444 nm

SMILES: Cc1ccc2nc3c4c(c5ccccc5c3nc2c1)OC(=O)CC4c1ccc(F)cc1 (stereo unspecified)
- emission maximum (in ClC(Cl)Cl): 431 nm

SMILES: CCOC(=O)c1cc(C(=O)OCC)c2cc(NC(=O)C(F)(F)F)ccc2n1
- emission maximum (in CCO): 436 nm

SMILES: Cc1cc(-c2nc(-c3ccccc3)nc(-c3ccccc3)n2)ccc1-n1c2ccccc2c2cc3c(cc21)C1c2ccccc2C3c2ccccc21
- emission maximum (in Cc1ccccc1): 431 nm
- emission maximum (in O=P(c1ccccc1)(c1ccccc1)c1ccccc1Oc1ccccc1P(=O)(c1ccccc1)c1ccccc1): 451 nm

SMILES: CCOC(=O)C1=C(N)n2c(=O)c3ccccc3c(=O)n2C1c1ccc(C)cc1 (stereo unspecified)
- emission maximum (in CS(C)=O): 517 nm

SMILES: Cc1ccc2c(c1)nnn2-c1c(C#N)c2c(N)ncnc2n1[C@H]1C[C@H](O)[C@@H](CO)O1
- emission maximum (in CO): 419 nm

SMILES: C(=C\c1ccncn1)/c1ccc(N2CCCCC2)cc1
- emission maximum (in C1CCOC1): 486 nm
- emission maximum (in CC#N): 514 nm
- emission maximum (in CCCCCCC): 435 nm
- emission maximum (in CS(C)=O): 521 nm
- emission maximum (in ClCCl): 498 nm
